# Data taken from patent US7906486B2, “Method of treating or preventing tissue deterioration, injury or damage due to disease of mucosa” (SciClone Pharmaceuticals, Inc., priority 2007, dated 2011).
# Values joined by “and” are separate entries in the source; they are usually repeats but may differ in a detail not shown here. Equal values may be shown once.
# Tested on: oral mucositis induced by cis-platin 5 mg/kg and radiation 35 Gy (left cheek pouch)
# Assay: Oral mucositis induced by a combination of cisplatin and acute radiation in hamsters, mucositis scoring (Example 4, SCI-04)
# Format: in vivo, Syrian Golden Hamsters
# Design: key: 0: Pouch completely healthy. No erythema or vasodilation.; 1: Light to severe erythema and vasodilation. No erosion of mucosa.; 2: Severe erythema and vasodilation. Erosion of superficial aspects of mucosa leaving denuded areas. Decreased stippling of mucosa.; 3: Formation of off-white ulcers in one or more places. Ulcers may have a yellow/gray due to pseudomembrane. Cumulative size of ulcers should equal about ¼ of the pouch. Severe erythema and vasodilation.; 4: Cumulative seize of ulcers should equal about ½ of the pouch. Loss of pliability. Severe erythema and vasodilation.; 5: Virtually all of pouch is ulcerated. Loss of pliability (pouch can only partially be extracted from mouth)
# Conditions: Group 2 (SCV-07 10 μg/kg, day -1 to day 20), individual animal scores, two scores per animal
# Method: Forty Golden Syrian hamsters were prospectively randomized into four equally sized groups. Mucositis was induced on the left cheek pouch mucosa of golden Syrian hamsters by a single dose of cis-platin at 5 mg/kg given on day −1, and a single dose of radiation administered on day 0 at a dose of 35Gy. Beginning on day −1 and continuing once daily until day 20, SCV-07 was given by sub-cutaneous injection at doses of 10 μg/kg, 100 μg/kg or 1 mg/kg in a volume of 100 μL. Animals' activity and weight were evaluated daily. Beginning on day 6 and continuing on alternate days for the duration of the study, oral mucositis was evaluated using a standard scoring six point scale. The number of days of ulcerative mucositis was evaluated using a Chi-squared test of scores of ≧3 throughout the study, and the individual daily group scores were assessed with a Rank Sum Test.
# The chemo-radiation model of oral mucositis in hamsters, developed by the Principal Investigator, has proven to be an accurate, efficient and cost-effective technique to provide a preliminary evaluation of anti-mucositis compounds. In this model, hamsters received a single dose of cis-platin at 5 mg/kg on day −1, followed by a single dose of radiation of 35 Gy to the left cheek pouch on day 0, rather than the single dose of 40 Gy on day 0 that is used in acute radiation studies. The course of mucositis in this model is very similar to the acute radiation model and results in peak mucositis scores approximately 16-18 days following radiation.
# Hamsters received a single dose of cis-platin at 5 mg/kg on day −1 by intra-peritoneal injection, followed by a single dose of radiation of 35 Gy to the left cheek pouch on day 0. This was accomplished by anesthetizing the animals and everting the left buccal pouch, while protecting the rest of the animal's bodies with a lead shield. Test materials were given by sub-cutaneous injection once daily as detailed in Table 13. Mucositis was evaluated clinically starting on day 6, and continuing on alternate days until day 28. Test articles were given as from day −1 to day 20.
# The grade of mucositis was scored, beginning day 6, and for every second day thereafter, through and including day 28. The effect on mucositis of each drug treatment compared to placebo was assessed according to the following parameters:
# On each evaluation day, the number of animals with a blinded mucositis score of ≧3 in each drug treatment group was compared to the control group. Differences were compared on a cumulative basis and statistical significance was determined by chi-square analysis. Efficacy, in this analysis, is defined by a significant reduction in the number of days that a group of animals had ulcerations (scores 3) when compared to the control group.
# For each evaluation day the scores of the control group were compared to those of the treated groups using non-parametric rank sum analysis. Treatment success was considered as a statistically significant lowering of scores in the treated group on 2 or more days from day 6 to day 28.
# Forty (40) male Syrian Golden Hamsters were given an intraperitoneal injection of 5 mg/kg Cisplatin on day −1. On day 0 all animals were given an acute radiation dose of 35 Gy directed to their left buccal cheek pouch. This was accomplished by anesthetizing the animals and everting the left buccal pouch, while protecting the rest of the animals with a lead shield. Test materials were given by subcutaneous injection once daily as detailed in Table 13. Mucositis was evaluated clinically starting on Day 6, and continued on alternate days until day 28.
# In this study, mucositis was induced with a combination of Cis-platin and radiation. Cis-platin was given as a single injection (IP) of 5 mg/kg on day −1. Radiation was given as a single focal dose of 35 Gy on day 0. Radiation was generated with a Philips 160 kVp (kilovolt potential) (18.75-ma) X-ray source at a focal distance of 30 cm, with a 3.0 mm hardened Al filtration system. […]
compound,measurement,setting,value
"N[C@H](CCC(=O)N[C@@H](Cc1c[nH]c2ccccc12)C(=O)O)C(=O)O [SCV-07, γ-D-glutamyl-L-tryptophan]","Mucositis score, day 10",day 10,1
same,"Mucositis score, day 12",day 12,3
same,"Mucositis score, day 14",day 14,3
same,"Mucositis score, day 16",day 16,3 (14×) and 4 (2×)
same,"Mucositis score, day 18",day 18,3 (12×) and 4 (2×)
same,"Mucositis score, day 20",day 20,3 (12×) and 1
same,"Mucositis score, day 22",day 22,1 (4×) and 3 (8×)
same,"Mucositis score, day 24",day 24,1 (5×) and 3 (4×)
same,"Mucositis score, day 26",day 26,1 (11×) and 3 (4×)
same,"Mucositis score, day 28",day 28,0 (7×) and 1 (8×) and 3 (2×)
